The source of these data is patent publication US20240050435A1, “METHODS FOR TREATING CANCER” (Washington University, priority 2022, published 2024).

One assay has as its target ATR (Homo sapiens, UniProt Q13535). Conditions: cited from earlier work.
Assay [1] concerns TP53-mutant hematopoietic stem cells (HSCs). The assay is described as follows: Mixed bone marrow chimeras (wildtype and R172H TP53 bone marrow). It is filed as in vivo. The conditions noted are these: mice with mixed wildtype / R172H TP53 bone marrow chimeras. The source says: To assess the impact of combination treatment on TP53-mutant hematopoietic stem cells (HSCs), mixed bone marrow chimeras transplanted with both wildtype and R172H TP53 bone marrow were established as illustrated in FIG. 13.

Sequence of ATR (Q13535 whole entry): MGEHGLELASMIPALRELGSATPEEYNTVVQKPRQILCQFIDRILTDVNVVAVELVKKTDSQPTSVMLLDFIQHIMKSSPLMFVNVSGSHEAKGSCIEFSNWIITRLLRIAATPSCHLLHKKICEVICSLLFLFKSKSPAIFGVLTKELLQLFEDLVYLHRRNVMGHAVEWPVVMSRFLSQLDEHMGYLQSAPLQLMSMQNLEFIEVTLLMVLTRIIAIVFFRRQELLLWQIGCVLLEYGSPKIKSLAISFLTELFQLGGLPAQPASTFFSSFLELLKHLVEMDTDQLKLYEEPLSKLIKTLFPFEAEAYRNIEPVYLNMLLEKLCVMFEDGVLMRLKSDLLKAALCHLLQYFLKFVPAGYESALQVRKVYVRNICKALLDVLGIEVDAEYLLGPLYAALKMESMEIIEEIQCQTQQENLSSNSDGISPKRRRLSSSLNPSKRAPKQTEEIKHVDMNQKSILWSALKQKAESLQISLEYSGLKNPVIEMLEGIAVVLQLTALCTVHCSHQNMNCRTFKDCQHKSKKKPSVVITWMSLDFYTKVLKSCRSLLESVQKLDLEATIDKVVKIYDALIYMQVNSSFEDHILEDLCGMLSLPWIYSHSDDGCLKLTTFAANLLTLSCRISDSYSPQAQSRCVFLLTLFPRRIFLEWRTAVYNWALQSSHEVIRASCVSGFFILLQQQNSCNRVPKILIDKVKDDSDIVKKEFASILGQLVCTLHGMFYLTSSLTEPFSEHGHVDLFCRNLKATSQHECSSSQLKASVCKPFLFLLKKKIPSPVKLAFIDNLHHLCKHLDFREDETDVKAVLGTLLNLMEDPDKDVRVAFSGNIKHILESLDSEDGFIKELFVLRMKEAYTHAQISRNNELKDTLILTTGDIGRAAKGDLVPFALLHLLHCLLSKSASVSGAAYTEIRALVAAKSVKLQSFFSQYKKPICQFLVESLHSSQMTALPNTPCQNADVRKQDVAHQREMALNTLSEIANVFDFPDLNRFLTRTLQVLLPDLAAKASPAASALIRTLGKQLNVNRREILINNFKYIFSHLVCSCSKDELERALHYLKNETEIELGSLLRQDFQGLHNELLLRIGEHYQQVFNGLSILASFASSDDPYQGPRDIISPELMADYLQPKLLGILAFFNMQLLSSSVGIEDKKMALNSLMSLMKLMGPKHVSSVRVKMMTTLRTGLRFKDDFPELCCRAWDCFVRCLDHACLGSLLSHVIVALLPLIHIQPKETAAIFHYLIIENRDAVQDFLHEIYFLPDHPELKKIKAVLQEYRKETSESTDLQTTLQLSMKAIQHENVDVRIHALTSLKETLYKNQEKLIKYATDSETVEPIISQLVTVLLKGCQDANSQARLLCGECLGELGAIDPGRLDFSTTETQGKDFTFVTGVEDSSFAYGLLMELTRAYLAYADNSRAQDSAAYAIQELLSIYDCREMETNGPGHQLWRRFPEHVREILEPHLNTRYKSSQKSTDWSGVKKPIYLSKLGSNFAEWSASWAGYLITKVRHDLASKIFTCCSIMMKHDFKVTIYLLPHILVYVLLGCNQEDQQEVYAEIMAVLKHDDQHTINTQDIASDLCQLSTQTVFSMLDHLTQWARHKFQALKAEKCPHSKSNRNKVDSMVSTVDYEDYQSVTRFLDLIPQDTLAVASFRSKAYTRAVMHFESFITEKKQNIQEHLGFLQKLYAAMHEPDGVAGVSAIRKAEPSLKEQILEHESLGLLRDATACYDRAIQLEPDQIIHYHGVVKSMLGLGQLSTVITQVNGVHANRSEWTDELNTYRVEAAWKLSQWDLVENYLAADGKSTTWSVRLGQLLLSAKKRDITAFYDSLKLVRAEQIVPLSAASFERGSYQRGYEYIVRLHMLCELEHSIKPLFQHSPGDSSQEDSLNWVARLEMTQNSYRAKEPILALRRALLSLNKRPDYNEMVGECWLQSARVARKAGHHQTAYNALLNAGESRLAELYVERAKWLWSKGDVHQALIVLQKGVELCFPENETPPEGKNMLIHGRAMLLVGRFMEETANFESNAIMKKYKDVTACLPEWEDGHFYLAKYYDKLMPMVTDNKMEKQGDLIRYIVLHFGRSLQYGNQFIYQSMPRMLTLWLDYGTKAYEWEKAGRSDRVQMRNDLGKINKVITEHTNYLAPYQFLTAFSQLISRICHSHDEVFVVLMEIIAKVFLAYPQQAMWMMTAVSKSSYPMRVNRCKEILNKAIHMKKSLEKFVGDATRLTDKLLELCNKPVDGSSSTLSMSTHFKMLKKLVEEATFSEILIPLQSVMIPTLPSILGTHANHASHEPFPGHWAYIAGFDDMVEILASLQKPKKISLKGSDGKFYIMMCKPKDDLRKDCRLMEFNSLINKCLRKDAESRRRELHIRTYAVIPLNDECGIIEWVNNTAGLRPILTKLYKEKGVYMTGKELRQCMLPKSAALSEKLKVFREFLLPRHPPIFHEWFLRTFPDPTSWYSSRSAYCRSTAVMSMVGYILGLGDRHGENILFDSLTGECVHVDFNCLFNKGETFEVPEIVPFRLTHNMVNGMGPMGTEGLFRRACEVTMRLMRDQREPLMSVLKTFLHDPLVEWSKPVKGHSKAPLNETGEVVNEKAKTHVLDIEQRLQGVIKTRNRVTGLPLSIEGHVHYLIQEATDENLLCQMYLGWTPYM
Sequence of ATR (Q8WXE1 whole entry partner): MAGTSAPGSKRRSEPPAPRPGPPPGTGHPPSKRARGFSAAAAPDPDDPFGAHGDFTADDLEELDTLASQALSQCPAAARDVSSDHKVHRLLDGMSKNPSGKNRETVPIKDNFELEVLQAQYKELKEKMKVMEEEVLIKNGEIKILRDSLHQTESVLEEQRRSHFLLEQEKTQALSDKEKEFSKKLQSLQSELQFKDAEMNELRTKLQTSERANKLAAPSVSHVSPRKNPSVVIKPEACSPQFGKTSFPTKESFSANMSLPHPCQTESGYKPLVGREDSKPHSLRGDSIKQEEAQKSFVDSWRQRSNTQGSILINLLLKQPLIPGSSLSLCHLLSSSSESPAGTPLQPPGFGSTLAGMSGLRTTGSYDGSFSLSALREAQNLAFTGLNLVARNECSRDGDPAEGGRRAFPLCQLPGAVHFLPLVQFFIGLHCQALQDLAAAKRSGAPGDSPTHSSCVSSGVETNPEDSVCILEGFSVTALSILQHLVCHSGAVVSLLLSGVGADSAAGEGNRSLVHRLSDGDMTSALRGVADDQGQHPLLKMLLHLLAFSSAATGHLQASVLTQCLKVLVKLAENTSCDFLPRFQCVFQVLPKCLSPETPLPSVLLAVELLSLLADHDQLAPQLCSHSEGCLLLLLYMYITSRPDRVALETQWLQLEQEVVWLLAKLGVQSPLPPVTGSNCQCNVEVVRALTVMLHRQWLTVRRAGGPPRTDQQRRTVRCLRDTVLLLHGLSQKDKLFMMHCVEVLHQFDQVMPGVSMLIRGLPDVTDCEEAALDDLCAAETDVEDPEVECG

As to `Cn1cncc1-c1c(F)cncc1NC(=O)c1c(N)nn2cc(F)cnc12` [M1774], the “inhibition of ATR signaling” value at ATR was “potent and specific inhibitor of ATR signaling”. As for `N.N.[Cl][Pt][Cl]` [cis-platinum], the “effect on TP53-mutant HSCs” value in assay [1] is recorded as “significant expansion of TP53-mutant HSCs”.
